The source of these data is US10352938B2, “Macrocyclic HOPO chelators” (LUMIPHORE, INC., priority 2009, dated 2019).

Series [1] can be described thus: UV/visible absorption spectroscopy of Eu(III) complexes in TRIS buffer. In kind it is physicochemical. The settings on record: for λ: absorption maximum. An excerpt:
Extinction Coefficient. A series of solutions of varied concentrations will be prepared from the solids based on mass and purity. The absorbance of each of these solutions at both 340 nm and at the appropriate acceptor wavelength will be measured and plotted according to Beer's Law (A=εcL where A is absorbance, ε is the extinction coefficient in M^−1 cm^−1, c is concentration, and L is path length in cm) with the fitted linear regression slope equal to […] on a plot of A as a function of C.
Each of the spectra have absorption maxima around 335-340 nm (FIG. 2). Those bands are composed of two electronic transitions; at higher energy, a purely π-π* transition and, at slightly lower energy (around ca. 320 nm), a π-π* transition with some n-π* character, as evidenced previously from TD-DFT calculations. […] This interaction gives maxima blue-shifting from 341 nm for [Eu(H(2,2)-1,2-HOPO)]^0 to 334 nm for [Eu(H(17O5,2)-1,2-HOPO)]^0 (as low as 332 nm for)[Eu(5LIN^Me-1,2HOPO)2]^0).

Series [2] can be described thus: Luminescence quantum yield, emission and brightness in aqueous 0.1 M TRIS buffer. As to conditions: for øTot: 0.1M TRIS buffer pH = 7.4; for Brightness: at maximum absorption, product of quantum yield and molar absorption coefficient, 0.1 M TRIS pH = 7.4; for overall quantum yield (in words): related to inner-sphere coordinated water. Format: physicochemical. The protocol:
Quantum Yield. Quantum yield will be measured using established methods. Fluorescence quantum yield Q are measured in diluted solution with an optical density lower than 0.1 using the following equation Qx/Qr=[Ar(λr)/Ax(λx)][nx^2/nr^2][Dx/Dr] were A is the absorbance at the excitation wavelength (λ), n the refractive index and D the integrated luminescence intensity. Subscripts “r” and “x” stand for reference and sample, respectively. References will be a quinine bisulfate in 1N sulfuric acid in aqueous solution (Qt=0.546)^1 and Ru(bpy)3 2C1 complexes in water solution (Qr=0.028)^2 for all complexes. A plot of integrated emission intensity (i.e. Dr) versus absorbance (i.e. Ar(λr)) yields a linear plot with a slope which can be equated to the reference quantum yield Qr. By analogy, for the unknown sample, a plot of integrated emission intensity (i.e. Dx) versus absorbance (i.e. Ax(λx)) yields a linear plot and Qx can then be evaluated. A minimum of at least two independent measurements will be averaged to derive a reliable value.

Series [3] in a line: Stability titration (pEu) by competitive batch titration using DTPA. Format: physicochemical. As to conditions: for pEu: competitive batch titration using DTPA in 0.1M TRIS pH = 7.4 and 0.1M KCl; for pEu value as compared to DTPA / thermodynamic stability in aqueous solution: in words; for thermodynamic stability in aqueous solution: pH=7.4. The protocol:
Stability Titrations. The general procedure used to determine the pEu values of ligands was adapted from an already described study using Gd and are similar to that already reported for other complexes. Different volumes of a standardized DTPA stock solution were added to solutions of constant ligand, metal, and electrolyte concentrations. Concentrations of complexed ligand in each solution were determined by subtracting the remaining luminescence intensity after addition of DTPA to the initial luminescence intensity at identical pH and those concentrations were used as references for the analysis. Stability of compounds towards mM concentrations of EDTA and divalent cations will be assessed by incubation of the proposed molecules at nM concentration at room temperature in aqueous solutions of test ions. Time Resolved Fluorescent signal will be assessed at the outset of experiment and monitored over a minimum of 24 hours to determine signal change.

Series [4] is described as follows: Triplet excited state energy from phosphorescence of Gd complexes at 77K. In kind it is physicochemical. The settings on record: solid matrix (methanol/ethanol 1/4), using the Gd complexes. The protocol:
Estimation of the energies of the ligand based triplet excited state were determined using the Gd(III) complexes. Gadolinium was chosen because it is a 4f^7 lanthanide cation having a similar 4f electronic configuration and size as the europium cation (4f^6), but lacking an accessible metal based low energy electronic excited state. At room temperature, only a broad weak emission centered between 380-400 nm can be seen for the Gd(III) complexes. […] At 77K, in solid matrix, an emission band at approx. 500 nm can be seen (FIG. 8). This emission, red-shifted compared to the singlet excited state, can be assigned to phosphorescence from the triplet excited state, lower in energy than the singlet excited state observed at room temperature. Selective time gated phosphorescence spectra (delay 0.1 ms) of the gadolinium complexes at 77K are depicted in FIG. 8.

Series [5] can be described thus: Luminescence lifetimes (TRIS buffer, deuterated water, 77K) and inner sphere water number q. As to conditions: for τ^D / τ (77K): first component; for q / q, second species: inner sphere water molecules; for q: first species.
Description: Fluorescent decay signals can be acquired using an IBH DataStation Hub photon counting module and data analysis performed using the commercially available DAS 6 decay analysis software package from HORIBA Jobin Yvon IBH. Goodness of fit will be assessed by minimizing the reduced chi squared function, χ2, and a visual inspection of the weighted residuals. Each trace will use at least 10,000 points and the reported lifetime values result from at least three independent measurements.
In addition to the steady state emission spectra, the luminescence quantum yields and luminescence lifetimes of the Eu(III) complexes were also measured in aqueous solution with 0.1 M TRIS buffer pH=7.4 and in deuterated solution to estimate the number of inner sphere water molecule (i.e. q) using the improved Horrock's equations.
Luminescence lifetimes were also determined at 77K, in a solid matrix (Table 5), which have allowed us to determine whether back energy transfer between the donor triplet excited state and the acceptor manifold excited state of the lanthanide is present, or alternately whether quenching via low lying LMCT state occurs.
A short description of series [6]: Calculation of Eu luminescence parameters (radiative lifetime, rate constants, efficiencies). Format: physicochemical. The settings on record: for η^Eu: efficiency of metal centred luminescence; for knr: non-radiative rate constant; for τrad: pure radiative luminescence lifetime, aqueous TRIS pH = 7.4; for kr: radiative rate constant; for η^sens: sensitization efficiency; for metal centred efficiency: TRIS buffer. As for the experimental part:
In this equation, the ηISC ηET term is termed the sensitization efficiency, ηsens (ηsens=ηISC ηET). All the luminescence parameters τR (the pure radiative luminescence lifetime), kR and knR (the radiative and non-radiative constant rate) can be deduced. These parameters were calculated for five of the octadentate complexes and the model complex that present only one species in solution at pH=7.4 and are reported in Table 6.

The mark [7] stands for this setting: extinction coefficient, in M-1·cm-1.
The mark [8] stands for this setting: solid matrix at 77K (methanol/ethanol 1/4).
The mark [9] stands for this setting: aqueous TRIS pH = 7.4, complexes with only one species.

Molecules are shown by their SMILES.

As to `O=C(NCCN(CCNC(=O)c1cccc(=O)n1O)CCOCCN(CCNC(=O)c1cccc(=O)n1O)CCNC(=O)c1cccc(=O)n1O)c1cccc(=O)n1O.[Eu]` [Eu(H5-1)], the ε was 15,900 M^−1 · cm^−1 in series [1] (TRIS buffer pH = 7.4) and 15,900 in series [1] (setting [7]). Also, the “λ^maxabs” value in series [1] (TRIS buffer pH = 7.4) came to 337 nm. The λ in series [1] was determined as 337 nm. The molecule also came in with a øTot in series [2] of 0.067. In series [2] (aqueous quantum yield), this molecule yielded a ϕTot of 0.067. In addition, the Brightness in series [2] is 1065 M⁻¹ cm⁻¹. The “overall quantum yield (in words)” value in series [2] is recorded as “low quantum yields”. Further, in series [3], the pEu was determined as 19.2. Besides, the “pEu value as compared to DTPA” value in series [3] is reported as “increased”. Also, in series [4], the “T0-0 (triplet excited state energy)” value is 22,000 cm^−1. The “τ^D” value in series [5] (deuterated solution) is 825; μs; in series [5] (deuterated water) it was 825 μs. In addition, the “τ^D, second component” value in series [5] (deuterated solution, second component) is on record as 462 μs; in series [5] (deuterated water, second component), 438 μs. For the same molecule, the τ in series [5] (first (longer) component) was 651 μs. Moreover, the values for the q in series [5] (improved Horrock's equations) and in series [5] were 0; and 0, respectively. Besides, the “q, second species” value in series [5] is 0.8; in series [5] (listed as [Eu(H(5O,2)-1,2HOPO)]^0) it was 1.1. The “τ, second component” value in series [5] (second (shorter) component) came to 304 μs. Besides, the “τ (77K)” value in series [5] (setting [8]) is reported as 823; μs. Also, the “τ (77K), second component” value in series [5] (solid matrix at 77K (methanol/ethanol 1/4), second component) is given as 608 μs.
In the case of `O=C(NCCN(CCNC(=O)c1cccc(=O)n1O)CCOCCOCCN(CCNC(=O)c1cccc(=O)n1O)CCNC(=O)c1cccc(=O)n1O)c1cccc(=O)n1O` [Eu(H8-2)], in series [1] (TRIS buffer pH = 7.4), the ε is 15,350 M^−1 · cm^−1 and the “λ^maxabs” value is 336 nm. Further, the λ in series [1] was 336 nm. The ε in series [1] (setting [7]) is listed as 15,350. In series [2], the øTot worked out at 0.112, the Brightness turned out to be 1720 M⁻¹ cm⁻¹ and the “overall quantum yield (in words)” value is “comparatively high quantum yields”. Moreover, the ϕTot in series [2] (setting [9]) was 0.112. Further, the ϕTot in series [2] (aqueous quantum yield) was found to be 0.112. Also, in series [3], the pEu stood at 20.4 and the “pEu value as compared to DTPA” value is “increased”. The “T0-0 (triplet excited state energy)” value in series [4] was 22,320 cm^−1. Moreover, in series [6], the sensitization process efficiency is reported as 28.4%, the “η^Eu” value was 0.395, the knr is 869 s⁻¹ and the τrad is 1770 μs. In series [6], the kr was 566 s⁻¹ and the “η^sens” value was 0.284. The molecule further returned a τ in series [5] (aqueous TRIS pH = 7.4) of 697 μs. Further, the “τ^D” value in series [5] (deuterated solution) stood at 913 μs. For the same molecule, in series [5] (deuterated water), the “τ^D” value is 913 μs. The τ in series [5] (first (longer) component) is 697 μs. Also, in series [5] (improved Horrock's equations), the q was determined as 0. For the same molecule, the “τ (77K)” value in series [5] (setting [8]) is reported as 748 μs.
As for `O=C(NCCN(CCNC(=O)c1cccc(=O)n1O)CCOCCOCCOCCOCCN(CCNC(=O)c1cccc(=O)n1O)CCNC(=O)c1cccc(=O)n1O)c1cccc(=O)n1O.[Eu]` [[Eu(H(14O4,2)-1,2HOPO)]^0], in series [1] (TRIS buffer pH = 7.4), the ε is 15,200 M^−1 · cm^−1 and the “λ^maxabs” value was 336 nm. In series [2], this molecule came in with a øTot of 0.192 and a Brightness of 2920 M⁻¹ cm⁻¹. For the same molecule, the ϕTot in series [2] (setting [9]) came to 0.192. In series [3], the “thermodynamic stability in aqueous solution” value is reported as “high thermodynamic stabilities”. Further, in series [4], the “T0-0 (triplet excited state energy)” value is reported as 22,020 cm^−1. For the same molecule, in series [6], the metal centred efficiency result is “around 50%”, the “η^Eu” value is reported as 0.528, the knr was 674 s⁻¹ and the τrad was 1326 μs. Besides, in series [6], the kr is 754 s⁻¹ and the “η^sens” value is given as 0.364. Moreover, the τ in series [5] (aqueous TRIS pH = 7.4) was 700 μs. Moreover, in series [5] (deuterated solution), the “τ^D” value is 961 μs. In addition, the q in series [5] (improved Horrock's equations) came out at 0.1. Further, the “τ (77K)” value in series [5] (setting [8]) is reported as 819 μs.
Consider `O=C(NCCN(CCNC(=O)c1cccc(=O)n1O)CCOCCOCCOCCOCCOCCN(CCNC(=O)c1cccc(=O)n1O)CCNC(=O)c1cccc(=O)n1O)c1cccc(=O)n1O.[Eu]` [[Eu(H(17O5,2)-1,2HOPO)]^0], for which, in series [1] (TRIS buffer pH = 7.4), the ε is 15,000 M^−1 · cm^−1 and the “λ^maxabs” value was found to be 336 nm. In addition, the “λ^maxabs” value in series [1] (TRIS buffer pH = 7.4, listed as [Eu(H(17O5,2)-1,2-HOPO)]^0) was determined as 334 nm. Moreover, in series [2], the øTot is given as 0.196 and the Brightness was found to be 2940 M⁻¹ cm⁻¹. Further, the øTot in series [2] (listed as [Eu(H(17O5,2)-1,2-HOPO)]^0) is 0.197. The ϕTot in series [2] (setting [9]) amounted to 0.196. The “thermodynamic stability in aqueous solution” value in series [3] is “high thermodynamic stabilities”. Also, in series [4], the “T0-0 (triplet excited state energy)” value is given as 21,690 cm^−1. Besides, in series [6], the metal centred efficiency entry is “around 50%”, the “η^Eu” value is recorded as 0.522, the knr is 679 s⁻¹ and the τrad is reported as 1348 μs. In addition, in series [6], the kr is 742 s⁻¹ and the “η^sens” value is 0.375. Also, the τ in series [5] (aqueous TRIS pH = 7.4) came out at 704 μs. Also, in series [5] (deuterated solution), the “τ^D” value came out at 962 μs. In addition, the q in series [5] (improved Horrock's equations) is recorded as 0.1. The “τ (77K)” value in series [5] (setting [8]) worked out at 826 μs.
